This note sets out measurements from patent US7915297B2, “Isoxazole derivatives and use thereof” (SK Holdings Co., Ltd., priority 2005, dated 2011).

Structures are written as SMILES.

One experiment relates to ovariectomized ICR mice. Description: In vivo osteoporosis assay in ovariectomized ICR mice (DEXA, micro-CT of spine L3-L6). To be noted: for BMD (g/cm^2) Avg. ± SD / BMD Change (%) / Trabeculae volume Change (%) / Trabeculae volume(mm^2) Avg. ± SD: four weeks; for BMD (g/cm^2) Avg. ± SD: spine L3-L6, DEXA; for BMD Change (%) / Trabeculae volume Change (%): Sham = 0.0. How it is done:
Experimental animals were female ICR mice having body weights of 24-28 g which were about 7 weeks old. In each cage, measuring 40×25×17 cm, 2-3 mice were reared at 22° C., RH 50%.
Ovariectomy is known as one of the most widely used techniques for inducing osteoporosis. As in postmenopause case, the ovariectomy-operation induce estrogen insufficient, result in decrease of osteogenesis and increase of bone resorption, lead to osteoporosis. Anaesthetized 7-week-old female ICR mice underwent ovariectomies and, immediately after the removal of both ovaries, they were administered with test compounds to determine the preventive and therapeutic effects thereof on osteoporosis.
1) Preparation of test material: Predetermined amounts of Derivative (1) were suspended in 0.5% CMC to prepare test materials to be administered. As for the control drug alendronate, 0.17% citric acid was added thereto as a pharmacopoeia to aid in the uptake of the drug.
2) Administration period: four weeks
3) Administration route and method: test materials were administered in a volume of 10 ml/kg of body weight, measured on the administration day, into seven groups: (1) intact control (ICR mice bred with typical diet, control); (2) ovariectomy control (the abdomen opened and closed without removal of the ovary, Sham); (3) ovariectomy group (ovaries removed, OVX); (4) alendronate-treated group (a dose of 5 mg/kg/day); (5) Derivative (1) 30 mg/kg/day treated group (OVX+Derivative (1) 30 mpk); (6) Derivative (1) 90 mg/kg/day treated group (OVX+Derivative (1) 90 mpk); and (7) Derivative (1) […] treated group (OVX+Derivative (1) 30 mpkW). Groups (1)˜(6) were orally treated five day a week for four weeks while group (7) was treated once a week for four weeks.
After administration for four weeks, the spine (L3-L6) was analyzed for bone mineral density (BMD) through dual-energy X-ray absorptiometry (DEXA) using a Lunar Pixi #5 instrument. Micro-computed tomography (Micro-CT) was performed to determine the effects of the test materials on bone mass and bone strength and on the tertiary bone mass of the spine (L3-L6).

Experiment [1] deals with Wnt/β-catenin signaling (β-catenin activity) in HEK293 cell line. Description: Cell-based Wnt agonist screening, TCF luciferase reporter, HEK293 (TCF-FL). The arrangement: species or system human. To be noted: Homo sapiens, HEK293, 24 h, % of LiCl (20 mM), 24 h, Conc. 60 μM, read-out: Max. Activity (%). Summed up: (§1)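 HEK293 and SW480 lines stably carried a 5X TCF firefly luciferase reporter under G418 selection. Cells (8,000–15,000/well, RPMI 1640 with 5% FBS) were grown 24 h, then treated with compound for 24 h. Luciferase activity was expressed as percent of the 20 mM LiCl positive control.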
In general terms: In a reporter assay the amount or activity of a reporter protein is the signal.

Experiment [2] deals with Wnt/β-catenin signaling (β-catenin activity) in SW480 cell line. Description: Cell-based Wnt agonist screening, TCF luciferase reporter, SW480 (TCF-FL). Set-up: species or system human. To be noted: Homo sapiens, % of LiCl (20 mM), 24 h, Con. 120 μM, read-out: Max. Activity (%). Summed up: as §1
[3] abbreviates: Group 4 (OVX + AD): alendronate 5 mg/kg/day, oral.
Where [4] appears, read: Group 5 (OVX + D30): 30 mg/kg/day, oral.
Setting [5] is: Group 6 (OVX + D90): 90 mg/kg/day, oral.
The mark [6] stands for this setting: Group 7 (OVX + W30): 90 mg/kg/week (30 mpkW), once a week.

Consider `NCCCC(O)(P(=O)(O)O)P(=O)(O)O` [Alendronate, alendronate, reference compound], for which the “BMD (g/cm^2) Avg. ± SD” value in the experiment with ovariectomized ICR mice (Group 4 (OVX + AD): alendronate 5 mg/kg/day, oral, five day a week) was found to be 0.066 ± 0.012 g/cm^2. Besides, in the experiment with ovariectomized ICR mice (setting [3]), the “BMD Change (%)” value is −4.3% and the “Trabeculae volume Change (%)” value was −25.1%. The “Trabeculae volume(mm^2) Avg. ± SD” value in the experiment with ovariectomized ICR mice (Group 4 (OVX + AD): alendronate 5 mg/kg/day, oral, spine L3-L6, micro-CT) came to 15.5 ± 3.27 mm^2.
Consider `O=C(NCCCn1ccnc1)c1cc(-c2ccco2)on1` [Derivative (1), 5-furan-2-yl-isoxazole-3-carboxylic acid (3-imidazol-1-yl-propyl)-amide], for which the “BMD (g/cm^2) Avg. ± SD” value amounted to 0.061 ± 0.007 g/cm^2 with ovariectomized ICR mice (Group 5 (OVX + D30): 30 mg/kg/day, oral, five day a week); 0.063 ± 0.005 g/cm^2 with ovariectomized ICR mice (Group 6 (OVX + D90): 90 mg/kg/day, oral, five day a week); 0.058 ± 0.006 g/cm^2 with ovariectomized ICR mice (setting [6]). For the same molecule, the “BMD Change (%)” value in the experiment on ovariectomized ICR mice (setting [4]) is −11.6%; in the experiment with ovariectomized ICR mice (setting [5]) it was −8.7%; with ovariectomized ICR mice (setting [6]), −15.9%. The figures for the “Trabeculae volume Change (%)” value in the experiment with ovariectomized ICR mice (setting [4]), with ovariectomized ICR mice (setting [5]) and with ovariectomized ICR mice (setting [6]) were 4.8%, 44.4% and 26.1%, respectively. Also, the “Trabeculae volume(mm^2) Avg. ± SD” value in the experiment on ovariectomized ICR mice (Group 5 (OVX + D30): 30 mg/kg/day, oral, spine L3-L6, micro-CT) amounted to 21.7 ± 2.43 mm^2; in the experiment on ovariectomized ICR mice (Group 6 (OVX + D90): 90 mg/kg/day, oral, spine L3-L6, micro-CT), 29.9 ± 0.83 mm^2; in the experiment with ovariectomized ICR mice (Group 7 (OVX + W30): 90 mg/kg/week (30 mpkW), once a week, micro-CT) it was 26.1 ± 1.87 mm^2. For the same molecule, in the experiment with ovariectomized ICR mice (OVX mice, four weeks administration), the “therapeutic effect on bone mass compared with alendronate” value is reported as “exceed that of alendronate”. Further, in the experiment on ovariectomized ICR mice (OVX mice, four weeks administration, DEXA), the “effect on bone mineral density (BMD) versus OVX group” value is on record as “decrease in bone mineral density to lesser extents compared to the OVX group”. Moreover, in the experiment with ovariectomized ICR mice (OVX mice, four weeks administration, micro-CT), the “effect on bone mass (BV/TV)” value is on record as “restrain the decrease of bone mass, but also to increase the bone density to a higher level than before ovariectomy”. For the same molecule, the Emax at 60 µM in experiment [1] was 70%. Moreover, the Emax at 120 µM in experiment [2] turned out to be 957%.
